Experimental data published in patent US20160296628A1, “NANOPARTICLE DELIVERY SYSTEMS FOR CYTOLYTIC PEPTIDE PRODRUGS” (Washington University, priority 2015, published 2016).

How the values were obtained:
2F2B endothelial cells = experiment: XTT cytotoxicity assay, 2F2B endothelial cells; format: cell-based; details: 3 hours at 37° C., FIGS. 1A-1C
Description: (§1) The conjugate was compared to melittin and to melittin coupled only to linker in order to determine toxicity to endothelial cells and macrophages, as well as hemolysis. For assessment of cytotoxicity, 2F2B endothelial cells (CRL-2168; American Type Culture Collection, Manassas, Va.) or RAW 264.7 macrophages (TIB-71; American Type Culture Collection, Manassas, Va.) were plated in a 96-well plate at a concentration of 15,000 cells/well and allowed to attach overnight. The peptide of interest was then added and incubated with the cells for 3 hours at 37° C. Following this incubation, the agent of interest was removed, cells were washed with phosphate-buffered saline, and cell viability was determined by XTT assay (Biotium, Hayward, Calif.). This assay measures the ability of cellular oxidoreductases to reduce the XTT reagent, resulting in a colored product. Briefly, cells were incubated with the activated XTT reagent for 3 hours at 37° C. with shaking at 200 rpm. The absorbance of each well at 450 nm was then measured using a Bio-Rad Model 550 plate reader (Bio-Rad Laboratories, Hercules, Calif.) with reference wavelength 630 nm.
(§2) To assess the impact of proteolytic cleavage on conjugate cytotoxicity and hemolytic activity, we repeated these experiments following cleavage of the conjugate by matrix metalloproteinase-9 (MMP-9). […]

RAW 264.7 macrophages = experiment: XTT cytotoxicity assay, RAW 264.7 macrophages; format: cell-based; details: 3 hours at 37° C., FIGS. 1A-1C
Description: as §1, §2

red blood cells = experiment: Hemolysis of red blood cells; format: cell-based, New Zealand white rabbits
Description: For hemolysis measurements, citrated whole blood was collected from New Zealand white rabbits and separated by centrifugation at 2000 rpm for 10 minutes. Red blood cells were washed five times with Dulbecco's phosphate buffered saline and stored at 4° C. until use. In each assay, the peptide of interest was added to 1×10^7 red blood cells in PBS and incubated at 37° C. for one hour. Afterwards, intact red blood cells were pelleted by centrifugation at 2000 rpm for 5 minutes and absorbance of the supernatant at 450 nm was measured using a Bio-Rad Model 550 plate reader (Bio-Rad Laboratories, Hercules, Calif.) with reference wavelength 630 nm To determine percent lysis, absorbance readings were normalized to lysis with 0.1% Triton™ X-100.
To assess the impact of proteolytic cleavage on conjugate cytotoxicity and hemolytic activity, we repeated these experiments following cleavage of the conjugate by matrix metalloproteinase-9 (MMP-9). Recombinant MMP-9 (R&D Systems, Minneapolis, Minn.) was activated by incubation with 1 mM 4-aminophenylmercuric acetate (APMA; Sigma-Aldrich, St. Louis, Mo.) at 37° C. for 2 hours. Free APMA was removed by dialysis against TCNBZ buffer (150 mM NaCl, 50 mM Tris, 10 mM CaCl2, 10 μM ZnCl2, 0.05% (w/v) Brij-35, pH 7.75) for 2 hours using a Slide-A-Lyzer MINI Dialysis Device, 2K MWCO (Thermo Scientific, Waltham, Mass.) with a dialysate change at 1 hour. […]

B16F10 melanoma cells = experiment: XTT cytotoxicity assay, B16F10 melanoma cells; format: cell-based; details: B16F10, MMP-9 added to culture media
[1] = Peptide loading onto perfluorocarbon nanoparticles; format: physicochemical; details: 1 mM peptide in phosphate-buffered saline, 4° C., 1 hour
Description: Conjugate-loaded nanoparticles were formulated by mixing known amounts of conjugate to non-targeted perfluorocarbon nanoparticles prepared in Example 1A and compared to melittin loading. Both melittin and the conjugate were produced by solid-phase peptide synthesis (melittin: GenScript, Piscataway, N.J.; conjugate: American Peptide Company, Sunnyvale, Calif.). Perfluorocarbon nanoparticles were incubated with 1 mM melittin or conjugate in phosphate-buffered saline at 4° C. for 1 hour. Nanoparticles were then isolated by centrifugation at 5,000 rpm for 15 minutes. The supernatant was removed and nanoparticles were washed three times with phosphate-buffered saline to remove free peptide.

Row | Compound | change of cytolytic activity / cytotoxicity relative to melittin (2F2B endothelial cells) | change of cytolytic activity / cytotoxicity relative to melittin (RAW 264.7 macrophages) | hemolytic activity after cleavage by MMP-9 (red blood cells; conjugate 200 μM cleaved with 20 nM MMP-9, 3 hours at 37° C.) | change of cytolytic / hemolytic activity relative to melittin (red blood cells; rabbit red blood cells in PBS, 37° C., one hour, FIGS. 1A-1C) | cytotoxicity to melanoma cells (B16F10 melanoma cells) | loading, peptides per nanoparticle [1]
1 | CC[C@H](C)[C@H](NC(=O)CNC(=O)[C@H](CCC(N)=O)NC(=O)CNC(=O)[C@H](C)NC(=O)[C@@H](NC(=O)CNC(=O)[C@H](CCC(N)=O)NC(=O)[C@@H]1CCCN1C(=O)CNC(=O)[C@H](C)NC(=O)[C@H](CCC(=O)O)NC(=O)[C@@H]1CCCN1C(=O)[C@H](CC(=O)O)NC(=O)[C@H](C)NC(=O)[C@H](CCC(=O)O)NC(=O)[C@H](C)NC(=O)[C@H](CC(=O)O)NC(=O)[C@H](C)NC(=O)[C@H](CCC(=O)O)NC(=O)[C@H](C)NC(=O)[C@H](CCC(=O)O)NC(=O)[C@@H]1CCCN1C(=O)[C@H](CCC(=O)O)NC(=O)[C@@H]1CCCN1C(=O)[C@H](C)NC(=O)[C@@H]1CCCN1C(=O)[C@H](CCC(=O)O)NC(=O)[C@@H]1CCCN1)[C@@H](C)CC)C(=O)NCC(=O)N[C@@H](C)C(=O)N[C@H](C(=O)N[C@@H](CC(C)C)C(=O)N[C@@H](CCCCN)C(=O)N[C@H](C(=O)N[C@@H](CC(C)C)C(=O)N[C@H](C(=O)N[C@H](C(=O)NCC(=O)N[C@@H](CC(C)C)C(=O)N1CCC[C@H]1C(=O)N[C@@H](C)C(=O)N[C@@H](CC(C)C)C(=O)N[C@H](C(=O)N[C@@H](CO)C(=O)N[C@@H](Cc1c[nH]c2ccccc12)C(=O)N[C@H](C(=O)N[C@@H](CCCCN)C(=O)N[C@@H](CCCNC(=N)N)C(=O)N[C@@H](CCCCN)C(=O)N[C@@H](CCCNC(=N)N)C(=O)N[C@@H](CCC(N)=O)C(=O)N[C@@H](CCC(N)=O)C(N)=O)[C@@H](C)CC)[C@@H](C)CC)[C@@H](C)O)[C@@H](C)O)C(C)C)C(C)C [Pro-P2] | reduced melittin cytotoxicity and hemolytic activity by at least two orders of magnitude | reduced melittin cytotoxicity and hemolytic activity by at least two orders of magnitude | restored | reduced melittin cytotoxicity and hemolytic activity by at least two orders of magnitude | substantially cytotoxic | 
2 | CC[C@H](C)[C@H](NC(=O)CN)C(=O)NCC(=O)N[C@@H](C)C(=O)N[C@H](C(=O)N[C@@H](CC(C)C)C(=O)N[C@@H](CCCCN)C(=O)N[C@H](C(=O)N[C@@H](CC(C)C)C(=O)N[C@H](C(=O)N[C@H](C(=O)NCC(=O)N[C@@H](CC(C)C)C(=O)N1CCC[C@H]1C(=O)N[C@@H](C)C(=O)N[C@@H](CC(C)C)C(=O)N[C@H](C(=O)N[C@@H](CO)C(=O)N[C@@H](Cc1c[nH]c2ccccc12)C(=O)N[C@H](C(=O)N[C@@H](CCCCN)C(=O)N[C@@H](CCCNC(=N)N)C(=O)N[C@@H](CCCCN)C(=O)N[C@@H](CCCNC(=N)N)C(=O)N[C@@H](CCC(N)=O)C(=O)N[C@@H](CCC(N)=O)C(N)=O)[C@@H](C)CC)[C@@H](C)CC)[C@@H](C)O)[C@@H](C)O)C(C)C)C(C)C [melittin] |  |  |  |  |  | approximately 16,000 peptides per nanoparticle
